Assay results reported in patent publication US20220168430A1, “THERAPEUTIC METHODS FOR TREATING HEPATITIS B” (priority 2019, published 2022).
“And” between values parts separate entries of the source, which are not always exact repeats. Identical values can stand only once.

What was measured:
[1] = test system: HBV DNA; experiment: HBV DNA by branched DNA assay in HepG2.2.15 cells, two-compound combinations (Examples 13-14); assay type: cell-based, HBV; HepG2.2.15 (human hepatoblastoma); conditions: for Average percent inhibition versus negative control: Cmpd 2 μM: 0.01, 0.0032, 0.001, 0.0003, 0.0001, 0, n = 4; for Additive percent inhibition versus negative control: Compound (2) μM: 0.01, 0.0032, 0.001, 0.0003, 0.0001, 0
Method: In vitro combination studies were conducted using the method of Prichard and Shipman (Prichard M N, and Shipman C Jr., Antiviral Research, 1990, 14(4-5), 181-205; and Prichard M N, et. al., MacSynergy II). The HepG2.2.15 cell culture system is a cell line derived from human hepatoblastoma HepG2 cells, which have been stably transfected with the adw2-subtype HBV genome as previously explained in Sells et al. (Proc. Natl. Acad. Sci. U. S. A, 1987. Vol 84:1005-1009). HepG2.2.15 cells secrete Dane-like viral particles, produce HBV DNA, and produce the viral proteins, HBeAg and HBsAg.
Although inhibition of HBV DNA, RNA and proteins can be determined in the presence of these inhibitors, we used the branched DNA assay due to its ability to quantitatively measure the level HBV DNA.
Detection of HBV DNA. The branched DNA assay (bDNA) was used to determine the effect of compound combinations on HBV DNA. HepG2.2.15 (10,000 cells/well) were cultured in DMEM medium plus supplements as described above. The next day, the cells were replenished with fresh medium followed by the addition of Inhibitor A and B, both were dissolved in 100% DMSO. The microtiter cell plates were incubated for a total duration of 6 days at 37° C. without replenishing media or compound. The serial dilutions spanned concentration ranges respective to the EC50 value of each compound. In addition to combination testing of the compounds, both inhibitors A and B were also tested singly.
The level of bDNA present in the inhibitor-treated supernatant wells was measured using a Quantigene 2.0 bDNA assay kit (Affymetrix, Santa Clara, Calif.) with HBV specific custom probe set (genotype D ayw; DF-10739) and manufacturer's instructions after performing a proteinase K digestion in lysis. The plates were read using a Victor luminescence plate reader (PerkinElmer Model 1420 Multilabel counter) and the RLU data generated from each well was calculated as inhibition of the untreated control wells. The data was analyzed using the interpretive guidelines established by Prichard and Shipman combination model using the MacSynergy II program (Prichard M N, Shipman C Jr. Antiviral Research, 1990. Vol 14(4-5):181-205; Prichard M N, Aseltine KR, and Shipman, C. MacSynergy II. University of Michigan 1992) to determine whether the combinations were synergistic, additive or antagonistic using the interpretive guidelines established by Prichard and Shipman as follows: synergy volumes <25 μM2% (log volume <2) at 95% CI=probably insignificant; 25-50 (log volume >2 and <5)=minor but significant 50-100 (log volume >5 and <9)=moderate, may be important in vivo; Over 100 (log volume >9)=strong synergy, probably important in vivo; volumes approaching 1000 (log volume >90)=unusually high, check data. The RLU data from the single compound treated cells were analyzed using XL-Fit module in Microsoft Excel to determine EC50 values using a 4-parameter curve fitting algorithm.

[2] = test system: HBsAg; experiment: HBsAg in culture supernatants of HBV-infected PHH by ELISA (Examples 15-17); conditions: for AVERAGE % INHIBITION: HBsAg
Method: All the test articles were further diluted 100 times with the culture medium. The final concentration of DMSO in the culture medium was 2%.
HBsAg in the culture supernatants harvested on days 8 was measured using the HBsAg/ELISA kit (Autobio) according to the manual. The samples were diluted 4-fold with PBS to get the signal in the range of the standard curve. Percent inhibition of HBsAg was calculated with the following formula:
% Inh. HBsAg=[1−HBsAg quantity of sample/HBV quantity of DMSO control]×100

[3] = test system: HBV DNA; experiment: HBV DNA in culture supernatants of HBV-infected PHH by qPCR (Examples 15-17); assay type: cell-based, HBV genotype D; primary human hepatocytes; conditions: Hepatitis B virus, determined in an earlier separate experiment
[4] = test system: HBV DNA; experiment: as above; assay type: cell-based, HBV genotype D; primary human hepatocytes
Method: The day PHH seeding date was defined as day 0.
The PHH were infected with 400 HBV GE/cell of D type HBV on day 1.
The test articles were further diluted with the culture medium to the final test concentrations.
All the test articles were further diluted 100 times with the culture medium. The final concentration of DMSO in the culture medium was […].
Four two-way combinations were performed on a 5×5 matrix, in triplicate plates. Transfection reagent was present in all wells.
DNA in the culture supernatants harvested on days 8 was isolated with QIAamp 96 DNA Blood Kit (Qiagen-51162). For each sample, 100 μl of each culture supernatant was used to extract DNA. The DNA was eluted with 180 μl of AE. HBV DNA in the culture supernatants was quantified by quatitative PCR using well-established and commonly used procedures. Percent inhibition of HBV DNA was calculated with the formula below:
% Inh. HBV DNA=[1−value of sample/AVG. value of Medium control]×100.
Results of double combination studies were analyzed using MacSynergy II software (Prichard and Shipman, 1992).

## C=C1[C@H](CO)[C@@H](O)C[C@@H]1n1cnc2c(=O)[nH]c(N)nc21 [ETV, entecavir]
[1]
  MacSynergy Volume Calculations, 99.99% confidence interval (Bonferroni Adj. 96%): 0.00
[1]; ETV 0.0001 μM
  Average percent inhibition versus negative control: −21.2%
  Additive percent inhibition versus negative control: −21.2%
[1]; ETV 0.001 μM
  Average percent inhibition versus negative control: 48.98%
  Additive percent inhibition versus negative control: 48.98%
[1]; ETV 0.1 μM
  Average percent inhibition versus negative control: 85.09%
  Additive percent inhibition versus negative control: 85.09%
[1]; ETV 1.0E−05 μM
  Average percent inhibition versus negative control: −88.53%
  Additive percent inhibition versus negative control: −88.53%
[1]; ETV 1.00E−06 μM
  Average percent inhibition versus negative control: −90.87%
  Additive percent inhibition versus negative control: −90.87%
[1]; ETV 3.16E−06 μM
  Average percent inhibition versus negative control: −90.2%
  Additive percent inhibition versus negative control: −90.2%
[1]; ETV 3.17E−05 μM
  Average percent inhibition versus negative control: −55.97%
  Additive percent inhibition versus negative control: −55.97%
[1]; Hepatitis B virus, HepG2.2.15, bDNA quantitation, read-out: Inhibitor A EC50
  EC50: 3.2 nM
[2]; ETV 0.00260 nM alone
  AVERAGE % INHIBITION: 4.92% and −1.45%
[2]; ETV 0.02300 nM alone
  AVERAGE % INHIBITION: 0.19% and −6.78%
[2]; Hepatitis B virus
  EC50: > 0.07 nM
[3]
  EC50: 0.015 nM
[4]; Compound 1 0.00 μg/mL, ETV nM by row: r41 0.07000, r42 0.02300, r43 0.00780, r44 0.00260, r45 0.00086, r46 0.00000
  SYNERGY PLOT (99.9%) Bonferroni Adj. 98% (HBV DNA): 0
[4]; Hepatitis B virus, HBV DNA, ETV 0.00086 nM alone
  inhibition at 860 fM: -5.71%
[4]; Hepatitis B virus, HBV DNA, ETV 0.00260 nM alone
  inhibition at 2.6 pM: 8.16%
[4]; Hepatitis B virus, HBV DNA, ETV 0.02300 nM alone
  inhibition at 23 pM: 62.3%
[4]; Hepatitis B virus, HBV DNA, ETV 0.07000 nM alone
  inhibition at 70 pM: 85.7%
[4]; Hepatitis B virus, HBV DNA, ETV […] alone
  inhibition at 7.8 pM: 24.2%
